According to patent publication US8975241B2, “Composition for treating and preventing obesity including high water-soluble 2-hydroxypropyl-betacyclodextrin as effective component” (Song Ho Biomed Co., Ltd., priority 2009, dated 2015):

Key:
[1] = system: mouse model with obesity caused by a high fat diet; test: Change in body weight by autonomically drinking in mouse model with obesity caused by high fat diet; assay type: in vivo
human = details: cited from earlier work
mouse = details: cited from earlier work
high fat diet-mouse [2] = test: Change in body weight by oral administration in high fat diet-mouse; assay type: in vivo; details: Table 19, β-CD 15% (w/v) oral
[3] = system: mouse model with obesity caused by a high fat diet; test: Change in body weight by autonomically drinking in mouse model with obesity caused by high fat diet; assay type: in vivo; details: for degree of body weight decrease as compared with HPBCD: autonomically drinking
Description: Male C57BL/6J mice (Five age of the week, KRIBB, Korea) were accommodated for 1 week, and then were induced with obesity by giving a high fat diet (60% fat kcal, Research Diets) for 15 days. The weights of the animals that were induced with obesity were equally divided into 3 animals as one group. And then, the solvent-control group drank sterilized distilled water, autonomically. Hydroxypropyl-β-cyclodextrin (HPBCD) was dissolved in sterilized distilled water to be 10, 15, and 20% (W/V) concentrations for drinking autonomically. A change in body weight was daily measured to all of animals during the test; the fixed amount of feeds was provided at the day of measuring body weight, and then an amount of intake per a group (g/day) was calculated by measuring a residual amount of feeds at the next day. A change in body weight was measured during the test using α-cyclodextrin (α-CD) instead of 2-hydroxypropyl-β-cyclodextrin (HPBCD) in the same method as the above <Example 1>.

high fat diet-mouse [4] = test: Change in body weight by oral administration in high fat diet-mouse; assay type: in vivo; details: for degree of body weight decrease as compared with HPBCD: method of Example 3 (oral)
Description: Male C57BL/6J mice (Five age of the week, KRIBB, Korea) were accommodated for 1 week. And then, the weights of the animals were equally divided into 5 animals as one group. While a high fat diet (60% fat kcal) was provided, sterilized distilled water and HPBCDs with 10, 20, and 40% (W/V) were orally administered at three times (Morning, Afternoon, Evening) a day for 5 days in 0.2 ml per 20 g body weight of a mouse at the same time. A change in body weight was measured to all of the animals during the test at one time per day; the fixed amount of feeds was provided at the day of measuring body weight, and then an average amount of intake per an animal (g/mouse/day) was calculated by measuring a residual amount of feeds at the next day.
A body weight was measured by using the same conditions as the above <Example 3>, except that BCDs with 10 and 20% (W/V) concentrations were used instead of HPBCDs with 10, 20, and 40% (W/V) concentrations.
A change in body weight was measured during the test using α-CD instead of HPBCD in the same method as the above <Example 3>.

OC[C@H]1O[C@@H]2O[C@H]3[C@H](O)[C@@H](O)[C@@H](O[C@H]4[C@H](O)[C@@H](O)[C@@H](O[C@H]5[C@H](O)[C@@H](O)[C@@H](O[C@H]6[C@H](O)[C@@H](O)[C@@H](O[C@H]7[C@H](O)[C@@H](O)[C@@H](O[C@H]8[C@H](O)[C@@H](O)[C@@H](O[C@H]1[C@H](O)[C@H]2O)O[C@@H]8CO)O[C@@H]7CO)O[C@@H]6CO)O[C@@H]5CO)O[C@@H]4CO)O[C@@H]3CO [BCD, β-cyclodextrin]
Change in body weight (%) ([1]; Table 18, β-CD 10% (w/v) autonomically drinking, 0 Day): 100.0 ± 0.0%
Change in body weight (%) ([1]; Table 18, β-CD 10% (w/v) autonomically drinking, 1 Day): 99.8 ± 0.8%
Change in body weight (%) ([1]; Table 18, β-CD 10% (w/v) autonomically drinking, 2 Day): 98.5 ± 1.3%
Change in body weight (%) ([1]; Table 18, β-CD 10% (w/v) autonomically drinking, 3 Day): 98.2 ± 1.2%
Change in body weight (%) ([1]; Table 18, β-CD 20% (w/v) autonomically drinking, 0 Day): 100.0 ± 0.0%
Change in body weight (%) ([1]; Table 18, β-CD 20% (w/v) autonomically drinking, 1 Day): 99.1 ± 1.2%
Change in body weight (%) ([1]; Table 18, β-CD 20% (w/v) autonomically drinking, 2 Day): 98.6 ± 1.2%
Change in body weight (%) ([1]; Table 18, β-CD 20% (w/v) autonomically drinking, 3 Day): 97.5 ± 1.0%
Change in body weight (%) ([1]; Table 18, β-CD 40% (w/v) autonomically drinking, 0 Day): 100.0 ± 0.0%
Change in body weight (%) ([1]; Table 18, β-CD 40% (w/v) autonomically drinking, 1 Day): 98.8 ± 1.1%
Change in body weight (%) ([1]; Table 18, β-CD 40% (w/v) autonomically drinking, 2 Day): 97.0 ± 0.8%
Change in body weight (%) ([1]; Table 18, β-CD 40% (w/v) autonomically drinking, 3 Day): 96.4 ± 1.3%
antiobesity effect (human): reduce weight
antiobesity effect (mouse): suppress a weight increase
Body weight as percent of initial body weight (high fat diet-mouse [2]; 0 Day): 100.0 ± 0.0%
Body weight as percent of initial body weight (high fat diet-mouse [2]; 1 Day): 99.6 ± 1.2%
degree of body weight decrease as compared with HPBCD [3]: low
increase in body weight as compared with the distilled water oral-administering group (high fat diet-mouse [4]; 10 and 20% (W/V) oral): suppressed
body weight as compared with the initial body weight (high fat diet-mouse [4]; 10 and 20% (W/V) oral, Example 5): not decreased
Body weight as percent of initial body weight (high fat diet-mouse [4]; Table 15, BCD 10% (w/v) oral, 0 Day): 100.0 ± 0.0%
Body weight as percent of initial body weight (high fat diet-mouse [4]; Table 15, BCD 10% (w/v) oral, 1 Day): 101.5 ± 2.1%
Body weight as percent of initial body weight (high fat diet-mouse [4]; Table 15, BCD 10% (w/v) oral, 2 Day): 100.7 ± 1.9 %
Body weight as percent of initial body weight (high fat diet-mouse [4]; Table 15, BCD 10% (w/v) oral, 3 Day): 102.0 ± 2.5 %
Body weight as percent of initial body weight (high fat diet-mouse [4]; Table 15, BCD 10% (w/v) oral, 4 Day): 102.4 ± 4.0 %
Body weight as percent of initial body weight (high fat diet-mouse [4]; Table 15, BCD 10% (w/v) oral, 5 Day): 103.4 ± 4.1 %
Body weight as percent of initial body weight (high fat diet-mouse [4]; Table 15, BCD 20% (w/v) oral, 0 Day): 100.0 ± 0.0%
Change in body weight (%) (high fat diet-mouse [4]; Table 15, BCD 20% (w/v) oral, 1 Day): 100.3 ± 2.7 %
Body weight as percent of initial body weight (high fat diet-mouse [4]; Table 15, BCD 20% (w/v) oral, 2 Day): 102.1 ± 2.1 %
Body weight as percent of initial body weight (high fat diet-mouse [4]; Table 15, BCD 20% (w/v) oral, 3 Day): 103.1 ± 2.1 %
Body weight as percent of initial body weight (high fat diet-mouse [4]; Table 15, BCD 20% (w/v) oral, 4 Day): 103.7 ± 3.0 %
Body weight as percent of initial body weight (high fat diet-mouse [4]; Table 15, BCD 20% (w/v) oral, 5 Day): 103.2 ± 2.6 %
Body weight as percent of initial body weight (high fat diet-mouse [4]; Table 19, β-CD 10% (w/v) oral, 0 Day): 100.0 ± 0.0%
Body weight as percent of initial body weight (high fat diet-mouse [4]; Table 19, β-CD 10% (w/v) oral, 1 Day): 100.5 ± 0.8%
Body weight as percent of initial body weight (high fat diet-mouse [4]; Table 19, β-CD 10% (w/v) oral, 2 Day): 100.1 ± 1.3%
Body weight as percent of initial body weight (high fat diet-mouse [4]; Table 19, β-CD 10% (w/v) oral, 3 Day): 99.8 ± 1.2%
Body weight as percent of initial body weight (high fat diet-mouse [4]; Table 19, β-CD 15% (w/v) oral, 2 Day): 99.0 ± 1.4%
Body weight as percent of initial body weight (high fat diet-mouse [4]; Table 19, β-CD 15% (w/v) oral, 3 Day): 98.5 ± 1.0%
Body weight as percent of initial body weight (high fat diet-mouse [4]; Table 19, β-CD 20% (w/v) oral, 0 Day): 100.0 ± 0.0%
Body weight as percent of initial body weight (high fat diet-mouse [4]; Table 19, β-CD 20% (w/v) oral, 1 Day): 99.5 ± 1.1%
Body weight as percent of initial body weight (high fat diet-mouse [4]; Table 19, β-CD 20% (w/v) oral, 2 Day): 98.6 ± 0.8%
Body weight as percent of initial body weight (high fat diet-mouse [4]; Table 19, β-CD 20% (w/v) oral, 3 Day): 97.8 ± 1.3%
degree of body weight decrease as compared with HPBCD (high fat diet-mouse [4]): low
difference of effect between 10 and 20% (W/V) (high fat diet-mouse [4]; oral): no significant difference

OC[C@H]1O[C@@H]2O[C@H]3[C@H](O)[C@@H](O)[C@@H](O[C@H]4[C@H](O)[C@@H](O)[C@@H](O[C@H]5[C@H](O)[C@@H](O)[C@@H](O[C@H]6[C@H](O)[C@@H](O)[C@@H](O[C@H]7[C@H](O)[C@@H](O)[C@@H](O[C@H]1[C@H](O)[C@H]2O)O[C@@H]7CO)O[C@@H]6CO)O[C@@H]5CO)O[C@@H]4CO)O[C@@H]3CO [α-CD, α-cyclodextrin]
Change in body weight (%) ([1]; Table 16, α-CD 10% (w/v) autonomically drinking, 0 Day): 100.0 ± 0.0%
Change in body weight (%) ([1]; Table 16, α-CD 10% (w/v) autonomically drinking, 1 Day): 100.2 ± 0.2%
Change in body weight (%) ([1]; Table 16, α-CD 10% (w/v) autonomically drinking, 3 Day): 100.1 ± 1.4%
Change in body weight (%) ([1]; Table 16, α-CD 15% (w/v) autonomically drinking, 0 Day): 100.0 ± 0.0%
Change in body weight (%) ([1]; Table 16, α-CD 15% (w/v) autonomically drinking, 3 Day): 98.9 ± 1.1%
Change in body weight (%) ([1]; Table 16, α-CD 20% (w/v) autonomically drinking, 0 Day): 100.0 ± 0.0%
Change in body weight (%) ([1]; Table 16, α-CD 20% (w/v) autonomically drinking, 3 Day): 98.5 ± 1.3%
Change in body weight (%) ([3]; Table 16, α-CD 10% (w/v) autonomically drinking, 2 Day): 100.6 ± 0.4%
Change in body weight (%) ([3]; Table 16, α-CD 15% (w/v) autonomically drinking, 1 Day): 99.8 ± 0.4%
Change in body weight (%) ([3]; Table 16, α-CD 15% (w/v) autonomically drinking, 2 Day): 99.3 ± 0.8%
Change in body weight (%) ([3]; Table 16, α-CD 20% (w/v) autonomically drinking, 1 Day): 99.8 ± 0.8%
Change in body weight (%) ([3]; Table 16, α-CD 20% (w/v) autonomically drinking, 2 Day): 99.0 ± 1.4%
degree of body weight decrease as compared with HPBCD [3]: low
Body weight as percent of initial body weight (high fat diet-mouse [4]; Table 17, α-CD 10% (w/v) oral, 0 Day): 100.0 ± 0.0%
Body weight as percent of initial body weight (high fat diet-mouse [4]; Table 17, α-CD 10% (w/v) oral, 1 Day): 101.3 ± 0.4%
Body weight as percent of initial body weight (high fat diet-mouse [4]; Table 17, α-CD 10% (w/v) oral, 2 Day): 100.5 ± 1.6%
Body weight as percent of initial body weight (high fat diet-mouse [4]; Table 17, α-CD 10% (w/v) oral, 3 Day): 100.2 ± 2.7%
Body weight as percent of initial body weight (high fat diet-mouse [4]; Table 17, α-CD 20% (w/v) oral, 0 Day): 100.0 ± 0.0%
Body weight as percent of initial body weight (high fat diet-mouse [4]; Table 17, α-CD 20% (w/v) oral, 1 Day): 99.8 ± 0.8%
Body weight as percent of initial body weight (high fat diet-mouse [4]; Table 17, α-CD 20% (w/v) oral, 2 Day): 99.5 ± 1.2%
Body weight as percent of initial body weight (high fat diet-mouse [4]; Table 17, α-CD 20% (w/v) oral, 3 Day): 99.2 ± 1.0%
Body weight as percent of initial body weight (high fat diet-mouse [4]; Table 17, α-CD 40% (w/v) oral, 0 Day): 100.0 ± 0.0%
Body weight as percent of initial body weight (high fat diet-mouse [4]; Table 17, α-CD 40% (w/v) oral, 1 Day): 99.6 ± 1.0%
Body weight as percent of initial body weight (high fat diet-mouse [4]; Table 17, α-CD 40% (w/v) oral, 2 Day): 99.0 ± 1.2%
Body weight as percent of initial body weight (high fat diet-mouse [4]; Table 17, α-CD 40% (w/v) oral, 3 Day): 98.2 ± 1.3%
degree of body weight decrease as compared with HPBCD (high fat diet-mouse [4]): low
